Read-outs that look alike come from different tables or passages of the source.
What was measured:
[1] = system: IL-13 induced STAT6 phosphorylation in BEAS-2B human lung epithelial cells; assay: AlphaScreen cellular JAK potency assay, BEAS-2B
[2] = system: IL-4 induced STAT6 phosphorylation in THP-1 human monocytic cells; assay: Cellular JAK potency assay, THP-1
Tyk2 = Tyk2 (Homo sapiens (Human), UniProt P29597); assay: LanthaScreen JAK biochemical assay (Tyk2)
JAK2 = JAK2 (Homo sapiens (Human), UniProt O60674); assay: LanthaScreen JAK biochemical assay (JAK2)
JAK1 = JAK1 (Homo sapiens (Human), UniProt P23458); assay: LanthaScreen JAK biochemical assay (JAK1)
[3] = Homo sapiens, BEAS-2B, read-out: BEAS2B pIC50 (converted)
[4] = Homo sapiens, THP-1, read-out: THP-1 IL4 pIC50 (converted)
[5] = IL-13 induced STAT6 phosphorylation, BEAS-2B cells
[6] = IL-4 induced STAT6 phosphorylation, THP-1 cells
[7] = read-out: Tyk 2 (pKi) (converted)
[8] = read-out: JAK 1 (pKi) (converted)
[9] = THP-1 cells, IL-4 induced STAT6 phosphorylation

Chain of JAK1 (P23458 whole entry): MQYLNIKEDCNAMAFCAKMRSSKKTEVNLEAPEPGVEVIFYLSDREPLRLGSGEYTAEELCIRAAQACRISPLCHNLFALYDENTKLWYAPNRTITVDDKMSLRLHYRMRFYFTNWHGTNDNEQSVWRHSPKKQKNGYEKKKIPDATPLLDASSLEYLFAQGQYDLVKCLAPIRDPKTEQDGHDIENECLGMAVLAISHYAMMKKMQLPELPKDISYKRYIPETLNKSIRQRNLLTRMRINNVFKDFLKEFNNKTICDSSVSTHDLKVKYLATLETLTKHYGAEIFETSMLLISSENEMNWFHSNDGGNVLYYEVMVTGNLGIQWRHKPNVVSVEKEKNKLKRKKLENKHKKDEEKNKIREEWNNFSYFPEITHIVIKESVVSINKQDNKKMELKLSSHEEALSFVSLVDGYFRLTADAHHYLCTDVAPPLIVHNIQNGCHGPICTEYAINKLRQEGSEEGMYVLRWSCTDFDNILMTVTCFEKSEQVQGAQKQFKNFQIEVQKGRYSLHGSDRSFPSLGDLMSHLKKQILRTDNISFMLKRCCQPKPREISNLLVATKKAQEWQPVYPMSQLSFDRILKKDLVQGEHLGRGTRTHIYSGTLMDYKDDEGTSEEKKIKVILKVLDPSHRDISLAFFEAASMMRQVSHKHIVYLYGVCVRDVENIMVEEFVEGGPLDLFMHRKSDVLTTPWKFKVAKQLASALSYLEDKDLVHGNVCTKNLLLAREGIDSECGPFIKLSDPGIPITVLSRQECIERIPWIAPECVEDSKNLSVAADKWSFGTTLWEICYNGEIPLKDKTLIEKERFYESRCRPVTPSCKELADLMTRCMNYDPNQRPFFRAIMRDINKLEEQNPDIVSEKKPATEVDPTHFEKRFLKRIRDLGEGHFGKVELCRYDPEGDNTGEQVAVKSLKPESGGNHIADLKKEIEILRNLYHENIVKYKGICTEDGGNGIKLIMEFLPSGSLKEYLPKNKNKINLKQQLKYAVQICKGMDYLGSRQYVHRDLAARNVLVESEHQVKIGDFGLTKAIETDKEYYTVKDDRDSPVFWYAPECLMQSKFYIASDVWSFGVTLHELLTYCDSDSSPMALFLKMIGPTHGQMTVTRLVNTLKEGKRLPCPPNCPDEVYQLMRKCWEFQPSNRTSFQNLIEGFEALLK
Chain of JAK2 (O60674 whole entry): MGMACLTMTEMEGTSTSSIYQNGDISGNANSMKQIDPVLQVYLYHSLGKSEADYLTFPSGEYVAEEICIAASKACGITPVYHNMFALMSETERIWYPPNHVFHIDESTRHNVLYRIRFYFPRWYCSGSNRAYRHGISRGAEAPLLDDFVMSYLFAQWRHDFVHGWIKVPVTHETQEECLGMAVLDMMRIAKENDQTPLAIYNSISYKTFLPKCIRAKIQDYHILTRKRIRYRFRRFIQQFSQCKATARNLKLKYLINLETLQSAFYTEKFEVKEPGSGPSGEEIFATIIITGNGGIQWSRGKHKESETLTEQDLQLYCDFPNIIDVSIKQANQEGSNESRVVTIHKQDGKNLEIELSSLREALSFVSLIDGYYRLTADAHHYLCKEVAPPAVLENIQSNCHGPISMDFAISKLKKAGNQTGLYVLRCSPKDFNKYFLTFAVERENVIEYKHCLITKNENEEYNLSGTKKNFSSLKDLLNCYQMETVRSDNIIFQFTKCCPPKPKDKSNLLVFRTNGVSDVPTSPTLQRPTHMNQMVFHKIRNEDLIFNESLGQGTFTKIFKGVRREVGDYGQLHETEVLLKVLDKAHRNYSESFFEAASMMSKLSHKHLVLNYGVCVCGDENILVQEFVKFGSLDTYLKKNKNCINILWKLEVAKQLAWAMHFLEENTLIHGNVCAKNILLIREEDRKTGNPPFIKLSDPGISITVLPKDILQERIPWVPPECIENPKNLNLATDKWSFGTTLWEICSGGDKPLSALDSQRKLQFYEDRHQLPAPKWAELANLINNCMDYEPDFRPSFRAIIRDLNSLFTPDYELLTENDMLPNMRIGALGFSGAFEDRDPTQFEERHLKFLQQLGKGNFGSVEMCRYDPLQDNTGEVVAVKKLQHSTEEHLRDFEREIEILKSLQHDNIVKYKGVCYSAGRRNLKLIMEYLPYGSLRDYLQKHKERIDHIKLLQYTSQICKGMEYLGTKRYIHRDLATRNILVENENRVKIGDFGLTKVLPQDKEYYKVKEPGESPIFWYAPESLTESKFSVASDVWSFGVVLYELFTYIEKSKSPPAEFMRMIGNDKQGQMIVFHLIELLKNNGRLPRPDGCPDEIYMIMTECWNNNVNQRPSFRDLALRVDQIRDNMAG
Chain of Tyk2 (P29597 whole entry): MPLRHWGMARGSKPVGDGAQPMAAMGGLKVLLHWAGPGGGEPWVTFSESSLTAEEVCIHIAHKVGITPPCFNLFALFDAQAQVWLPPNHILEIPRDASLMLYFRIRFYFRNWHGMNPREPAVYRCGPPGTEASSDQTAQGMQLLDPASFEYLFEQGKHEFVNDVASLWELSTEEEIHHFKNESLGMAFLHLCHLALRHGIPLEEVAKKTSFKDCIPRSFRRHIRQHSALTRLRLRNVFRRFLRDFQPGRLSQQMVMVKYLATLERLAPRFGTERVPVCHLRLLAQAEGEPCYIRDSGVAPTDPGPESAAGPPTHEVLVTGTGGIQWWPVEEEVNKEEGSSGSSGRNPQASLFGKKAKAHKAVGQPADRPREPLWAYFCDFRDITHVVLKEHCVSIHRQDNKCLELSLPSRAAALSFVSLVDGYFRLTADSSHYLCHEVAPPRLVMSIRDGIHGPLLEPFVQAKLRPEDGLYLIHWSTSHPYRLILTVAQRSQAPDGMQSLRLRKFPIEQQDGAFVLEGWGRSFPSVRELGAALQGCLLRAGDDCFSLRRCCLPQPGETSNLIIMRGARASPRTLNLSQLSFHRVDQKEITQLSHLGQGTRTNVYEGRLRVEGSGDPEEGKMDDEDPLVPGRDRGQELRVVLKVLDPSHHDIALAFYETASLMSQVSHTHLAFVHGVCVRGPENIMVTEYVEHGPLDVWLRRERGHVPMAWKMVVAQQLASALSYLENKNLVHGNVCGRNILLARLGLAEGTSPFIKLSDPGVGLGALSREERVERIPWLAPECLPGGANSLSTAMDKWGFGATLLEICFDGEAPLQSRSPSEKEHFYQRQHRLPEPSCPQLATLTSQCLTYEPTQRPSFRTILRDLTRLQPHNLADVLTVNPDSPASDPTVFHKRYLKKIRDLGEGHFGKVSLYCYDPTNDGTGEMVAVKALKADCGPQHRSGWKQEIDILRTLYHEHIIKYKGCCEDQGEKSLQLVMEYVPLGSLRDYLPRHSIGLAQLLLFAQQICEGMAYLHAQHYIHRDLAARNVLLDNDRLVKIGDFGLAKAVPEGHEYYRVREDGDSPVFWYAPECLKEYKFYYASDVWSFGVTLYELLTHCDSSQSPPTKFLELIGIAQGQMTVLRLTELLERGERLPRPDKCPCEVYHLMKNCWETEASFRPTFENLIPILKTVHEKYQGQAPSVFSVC

| SMILES | IC50 [1, 3] [nM] | IC50 [2, 4] [nM] | BEAS2B pIC50 [1, 5] | Tyk 2 (pKi) (Tyk2) | JAK 2 (pKi) (JAK2) | JAK 1 (pKi) (JAK1) | Ki (Tyk2; [7]) [nM] | Ki (JAK1; [8]) [nM] | also measured |
| --- | --- | --- | --- | --- | --- | --- | --- | --- | --- |
| Cc1cc(Nc2cc3ncccc3c(N[C@@H]3C[C@H]4CC[C@@H](C3)N4CC(F)(F)F)n2)n[nH]1 [Example 1-14] | < 31.6 | < 31.6 |  |  |  |  |  |  | Ki (Tyk2): 0.1 to 1 nM; Ki (JAK2): 0.1 to 1 nM; Ki (JAK1): 0.1 to 1 nM |
| CCC(CC#N)N1[C@@H]2CC[C@H]1C[C@H](Nc1nc(Nc3cc(C)[nH]n3)cc3ncccc13)C2 (some centres unmarked) [Example 1-22] |  |  | A (A represents a pEC50 value≥7.5 (EC50≤32 nM)) | B (B represents a pKi value between 9 and 10 (Ki between 1 nM and 0.1 nM)) | B (B represents a pKi value between 9 and 10 (Ki between 1 nM and 0.1 nM)) | B (B represents a pKi value between 9 and 10 (Ki between 1 nM and 0.1 nM)) |  |  | THP-1 IL4 pIC50 [2, 6]: B (B represents a pEC50 value between 6.7 and 7.5 (EC50 between 200 nM and 32 nM)) |
| Cc1cc(Nc2cc3ncccc3c(N[C@@H]3C[C@H]4CC[C@@H](C3)N4CC3(C#N)CC3)n2)n[nH]1 [Example 1-24] | < 31.6 | 31.6 to 200 |  |  |  |  | 0.1 to 1 | 0.1 to 1 |  |
| Cc1cc(Nc2cc3ncccc3c(N[C@@H]3C[C@H]4CC[C@@H](C3)N4C3(CC#N)COC3)n2)n[nH]1 [Example 1-25] | < 31.6 | < 31.6 |  |  |  |  |  | 0.1 to 1 | Ki (Tyk2): 0.1 to 1 nM |
| Cc1cc(Nc2cc3ncccc3c(N[C@@H]3C[C@H]4CCC[C@@H](C3)N4Cc3ccnc(C#N)c3)n2)n[nH]1 [Example 1-55] |  |  | B (B represents a pEC50 value between 6.7 and 7.5 (EC50 between 200 nM and 32 nM)) | C (C represents a pKi value between 7 and 9 (Ki between 100 nM and 1 nM)) |  |  |  |  |  |
| Cc1cc(Nc2cc3ncccc3c(N[C@@H]3C[C@H]4CCC[C@@H](C3)N4Cc3ccncc3C#N)n2)n[nH]1 [Example 1-56] |  |  | A (A represents a pEC50 value≥7.5 (EC50≤32 nM)) | B (B represents a pKi value between 9 and 10 (Ki between 1 nM and 0.1 nM)) | B (B represents a pKi value between 9 and 10 (Ki between 1 nM and 0.1 nM)) | B (B represents a pKi value between 9 and 10 (Ki between 1 nM and 0.1 nM)) |  |  | THP-1 IL4 pIC50 [2, 6]: A (A represents a pEC50 value≥7.5 (EC50≤32 nM)) |
| Cc1cc(Nc2cc3ncccc3c(N[C@@H]3C[C@H]4CCC[C@@H](C3)N4C(=O)CCCC#N)n2)n[nH]1 [Example 2-27] |  |  | B (B represents a pEC50 value between 6.7 and 7.5 (EC50 between 200 nM and 32 nM)) | B (B represents a pKi value between 9 and 10 (Ki between 1 nM and 0.1 nM)) | B (B represents a pKi value between 9 and 10 (Ki between 1 nM and 0.1 nM)) | B (B represents a pKi value between 9 and 10 (Ki between 1 nM and 0.1 nM)) |  |  |  |
| Cc1cc(Nc2cc3ncccc3c(N[C@@H]3C[C@H]4CCC[C@@H](C3)N4C(=O)c3ccc(C#N)nc3)n2)n[nH]1 [Example 2-28] |  |  | C (C represents a pEC50 value<6.7 (EC50>200 nM)) | B (B represents a pKi value between 9 and 10 (Ki between 1 nM and 0.1 nM)) |  | B (B represents a pKi value between 9 and 10 (Ki between 1 nM and 0.1 nM)) |  |  |  |
| Cc1cc(Nc2cc3ncccc3c(N[C@@H]3C[C@H]4CCC[C@@H](C3)N4C(=O)C(C)CC#N)n2)n[nH]1 (some centres unmarked) [Example 2-29] |  |  | B (B represents a pEC50 value between 6.7 and 7.5 (EC50 between 200 nM and 32 nM)) | B (B represents a pKi value between 9 and 10 (Ki between 1 nM and 0.1 nM)) | B (B represents a pKi value between 9 and 10 (Ki between 1 nM and 0.1 nM)) | B (B represents a pKi value between 9 and 10 (Ki between 1 nM and 0.1 nM)) |  |  |  |
| COc1ccc2c(N[C@@H]3C[C@H]4CC[C@@H](C3)N4CC(F)(F)F)nc(Nc3cc(C)[nH]n3)cc2n1 [Example 5-1] | < 31.6 | < 31.6 |  |  |  |  | 0.1 to 1 | 0.1 to 1 | Ki (JAK2; read-out: JAK 2 (pKi) (converted)): 0.1 to 1 nM |
| Cc1cnc2cc(Nc3cc(C)[nH]n3)nc(N[C@@H]3C[C@H]4CC[C@@H](C3)N4S(=O)(=O)N3CC(C#N)C3)c2c1 [Example 6-4] | < 31.6 | < 31.6 |  |  |  |  | 0.1 to 1 | 0.1 to 1 |  |
| COc1cnc2cc(Nc3cc(C)[nH]n3)nc(N[C@@H]3C[C@H]4CC[C@@H](C3)N4CCC#N)c2c1 [Example 6-11] |  |  |  | B (B represents a pKi value between 9 and 10 (Ki between 1 nM and 0.1 nM)) | B (B represents a pKi value between 9 and 10 (Ki between 1 nM and 0.1 nM)) | B (B represents a pKi value between 9 and 10 (Ki between 1 nM and 0.1 nM)) |  |  | THP-1 IL4 pIC50 [2, 9]: A (A represents a pEC50 value≥7.5 (EC50≤32 nM)) |
| COc1cnc2cc(Nc3cc(C)[nH]n3)nc(N[C@@H]3C[C@H]4CC[C@@H](C3)N4S(C)(=O)=O)c2c1 [Example 6-18] | < 31.6 | < 31.6 |  |  |  |  | 0.1 to 1 |  |  |
| COc1cnc2cc(Nc3cc(C)[nH]n3)nc(N[C@@H]3C[C@H]4CC[C@@H](C3)N4S(=O)(=O)N3CC(C#N)C3)c2c1 [Example 6-20] | 31.6 to 200 |  |  |  |  |  | 0.1 to 1 | 0.1 to 1 | Ki (JAK2): 0.1 to 1 nM |
| COc1cnc2cc(Nc3cc(C)[nH]n3)nc(N[C@@H]3C[C@H]4CC[C@@H](C3)N4S(=O)(=O)CCCC#N)c2c1 [Example 6-21] |  |  |  | B (B represents a pKi value between 9 and 10 (Ki between 1 nM and 0.1 nM)) | B (B represents a pKi value between 9 and 10 (Ki between 1 nM and 0.1 nM)) | B (B represents a pKi value between 9 and 10 (Ki between 1 nM and 0.1 nM)) |  |  | BEAS2B pIC50 ([1]; BEAS-2B cells, IL-13 induced STAT6 phosphorylation): B (B represents a pEC50 value between 6.7 and 7.5 (EC50 between 200 nM and 32 nM)) |
| COc1cnc2cc(Nc3cc(C)[nH]n3)nc(N[C@@H]3C[C@H]4CC[C@@H](C3)N4S(=O)(=O)CC3(C#N)CC3)c2c1 [Example 6-23] | 31.6 to 200 |  |  |  |  |  | 0.1 to 1 | 0.1 to 1 |  |
| COc1cnc2cc(Nc3cc(C)[nH]n3)nc(N[C@@H]3C[C@H]4CCC[C@@H](C3)N4C(=O)CN(C)C)c2c1 [Example 6-30] |  |  |  | B (B represents a pKi value between 9 and 10 (Ki between 1 nM and 0.1 nM)) | B (B represents a pKi value between 9 and 10 (Ki between 1 nM and 0.1 nM)) | B (B represents a pKi value between 9 and 10 (Ki between 1 nM and 0.1 nM)) |  |  | THP-1 IL4 pIC50 [2, 9]: C (C represents a pEC50 value<6.7 (EC50>200 nM)) |
| Cc1cnc2c(F)c(Nc3cc(C)[nH]n3)nc(N[C@@H]3C[C@H]4CC[C@@H](C3)N4S(=O)(=O)c3cccnc3)c2c1 [Example 8-20] |  |  |  | C (C represents a pKi value between 7 and 9 (Ki between 100 nM and 1 nM)) | C (C represents a pKi value between 7 and 9 (Ki between 100 nM and 1 nM)) | B (B represents a pKi value between 9 and 10 (Ki between 1 nM and 0.1 nM)) |  |  | THP-1 IL4 pIC50 [2, 9]: C (C represents a pEC50 value<6.7 (EC50>200 nM)) |
| Cc1cc(Nc2cc3ncccc3c(N[C@@H]3C[C@H]4CCC[C@@H](C3)N4S(=O)(=O)c3cncc(F)c3)n2)n[nH]1 [Example 14, N^5-((1R,3s,5S)-9-((5-fluoropyridin-3-yl)sulfonyl)-9-azabicyclo[3.3.1]nonan-3-yl)-N^7-(5-methyl-1H-pyrazol-3-yl)-1,6-naphthyridine-5,7-diamine] | < 31.6 | < 31.6 |  |  |  |  | 0.1 to 1 |  |  |

— US10072026B2, “Crystalline form of 3-((1R,3s,5S)-3-((7-((5-methyl-1H-pyrazol-3-yl)amino)-1,6-naphthyridin-5-yl)amino)-8-azabicyclo[3.2.1]octan-8-yl)propanenitrile” (priority 2015, dated 2018)
